{"source": "patent US12226386B2", "about": "“Compositions and methods for treating biofilms” (The Regents of the University of California, priority 2018, dated 2025)", "data": [{"tested_on": "C. albicans biofilms", "experiment": "in vitro biofilm disruption assay, fungal", "format": "cell-based, Candida albicans", "conditions": "1% amino acid, p<0.001", "protocol": "Two types of biofilm assays were performed: a sustained inhibition assay and a disruption assay.\n(§1) For fungal biofilm assays, all solutions were prepared in RPMI 1640 medium. All bacterial biofilm solutions were prepared in Tryptic Soy Broth (TSB), supplemented with 1% glucose (henceforth referred to as TSB-G). All subsequent procedures were performed in a manner that maintained sterility. A solution of each amino acid to be tested was prepared in weight to volume concentrations ranging from 0.1-5.0%. Amino acids were also tested in combinations. Compound solutions were homogenized with gentle agitation in the dark (4° C., 24 hours) before use.\nFungal strains were streaked on Yeast Peptone Dextrose (YPD) agar plates and incubated at 30° C. for 48 hours. A single colony from each strain to be tested was inoculated into YPD broth and grown for 12 hours, at 30° C., shaking at 225 rpm. For the fungal biofilm inhibition assay, 1 μl of saturated overnight cell culture was added to either 80 μL of RPMI-1640 or RPMI-1640 supplemented with the amino acid compound solution to be tested, in a 384-well plate. […] Media was carefully aspirated and the biofilm was measured by optical density at 600 nm. Twelve replicates were performed for each tested condition and the reported values are normalized to the control (RPMI-1640 media only). For the fungal biofilm disruption assays, 80 μL of RPMI-1640 was added to the plate, along with 1 μL of overnight cell culture. […] Loosely bound cells were washed once with PBS and 80 μL of RPMI-1640 was added to the plate. […] Media was carefully aspirated from the mature biofilm and 80 μL of RPMI-1640, or RPMI-1640 supplemented with the amino acid compound solution to be tested, was gently added to the plate. […] Media was carefully aspirated and the biofilm was measured by optical density at 600 nm. Twelve replicates were performed for each tested condition and the reported values are normalized to the control (RPMI-1640 media only).\nThe cells were allowed to adhere to the plate for 90 minutes at 37° C. with shaking (350 rpm). […] The plate was further incubated for 24 hours at 37° C. with shaking (350 rpm). […] The plate was further incubated for 24 hours at 37° C. with shaking (350 rpm). Media was carefully aspirated and the biofilm was measured by optical density at 600 nm.", "values": [{"smiles": "N[C@@H](CC(=O)O)C(=O)O", "note": "[Aspartic Acid, L-aspartic acid]", "Reduce F Biofilm": "●● (two dots [i.e. ●●] signifies major effect (greater than about 30% change))"}, {"smiles": "N[C@@H](CS)C(=O)O", "note": "[Cysteine, L-cysteine]", "Reduce F Biofilm": "●● (two dots [i.e. ●●] signifies major effect (greater than about 30% change))"}, {"smiles": "N[C@@H](CCC(=O)O)C(=O)O", "note": "[Glutamic Acid, L-glutamic acid]", "Reduce F Biofilm": "●● (two dots [i.e. ●●] signifies major effect (greater than about 30% change))"}]}, {"tested_on": "Candida and Staphylococcus biofilms", "experiment": "biofilm assays (sustained inhibition and disruption), bacterial and fungal", "format": "cell-based, Candida albicans; Staphylococcus aureus", "conditions": "Tables 4 and 5", "protocol": "In vitro biofilm formation was tested using two assays, sustained inhibition and disruption. Both assays assess biofilm formed on polystyrene plates. The first, tests the effects of amino acid solution on a developing biofilm, while the latter tests the effects of the solution on a pre-formed mature biofilm, both compared to media without supplemented amino acids.\nOther amino acids in the blood of animals could combat bacterial and fungal biofilm and therefore may be useful in treating these bacterial and fungal infections that would lie on the external surfaces of infected animals such as humans and could also be used to combat these pathogens on instruments and surfaces that need to be treated. Two types of biofilm assays were performed: a sustained inhibition assay and a disruption assay. The sustained inhibition assay assessed the compound's ability to prevent biofilm development throughout all stages of biofilm formation, while the disruption assay assessed the compound's ability to break up an existing mature biofilm.\nas §1\nFungal strains were streaked on Yeast Peptone Dextrose (YPD) agar plates and incubated at 30° C. for 48 hours. A single colony from each strain to be tested was inoculated into YPD broth and grown for 12 hours, at 30° C., shaking at 225 rpm. For the fungal biofilm inhibition assay, 1 μl of saturated overnight cell culture was added to either 80 μL of RPMI-1640 or RPMI-1640 supplemented with the amino acid compound solution to be tested, in a 384-well plate. The cells were allowed to adhere to the plate for 90 minutes at 37° C. shaking at 350 rpm. Loosely bound cells were washed once with phosphate buffered saline (PBS) and 80 μl of RPMI-1640, or RPMI-1640 supplemented with the amino acid compound solution was added to the plate. The plate was further incubated for 24 hours at 37° C. shaking at 350 rpm. Media was carefully aspirated and the biofilm was measured by optical density at 600 nm. Twelve replicates were performed for each tested condition and the reported values are normalized to the control (RPMI-1640 media only). For the fungal biofilm disruption assays, 80 μL of RPMI-1640 was added to the plate, along with 1 μL of overnight cell culture. The cells were allowed to adhere to the plate for 90 minutes at 37° C. shaking at 350 rpm. Loosely bound cells were washed once with PBS and 80 μL of RPMI-1640 was added to the plate. The plate was further incubated for 24 hours at 37° C. shaking at 350 rpm. Media was carefully aspirated from the mature biofilm and 80 μL of RPMI-1640, or RPMI-1640 supplemented with the amino acid compound solution to be tested, was gently added to the plate. The plate was further incubated for 24 hours at 37° C. shaking at 350 rpm. Media was carefully aspirated and the biofilm was measured by optical density at 600 nm. Twelve replicates were performed for each tested condition and the reported values are normalized to the control (RPMI-1640 media only).\nBacterial strains were streaked on Blood Agar plates (5% sheep blood in Tryptic Soy Agar) and incubated at 37° C. for 24 hours. A single colony from each strain to be tested was inoculated in a TSB broth and grown for 12 hours, at 37° C. shaking at 225 rpm. For the bacterial biofilm inhibition assays, 1 μL of saturated overnight cell culture was added to either 80 μL of TSB-G, or TSB-G supplemented with the amino acid compound solution to be tested, in a 384-well plate. […]", "values": [{"smiles": "N[C@@H](CC(=O)O)C(=O)O", "note": "[Aspartic Acid, L-aspartic acid]", "effect on Candida and Staphylococcus biofilms in inhibition and disruption assays": "both inhibit and disrupt"}, {"smiles": "N[C@@H](CS)C(=O)O", "note": "[Cysteine, L-cysteine]", "effect on Candida and Staphylococcus biofilms in inhibition and disruption assays": "both inhibit and disrupt"}, {"smiles": "N[C@@H](CCC(=O)O)C(=O)O", "note": "[Glutamic Acid, L-glutamic acid]", "effect on Candida and Staphylococcus biofilms in inhibition and disruption assays": "both inhibit and disrupt"}]}]}
